Data reported in patent publication US11607422B2, “Uttroside B and derivatives thereof as therapeutics for hepatocellular carcinoma” (Rajiv Gandhi Centre for Biotechnology, an Autonomous …, priority 2016, dated 2023).

What was measured:
AP-1 in HepG2 cells = experiment: Electrophoretic mobility shift assay of AP-1; assay type: cell-based, human; conditions: HepG2, EMSA
Description: Stocks of crude extracts and isolated compound of S. nigrum was prepared in DMSO for the in vitro studies and stored at −20° C. The DMSO concentration in all studies, including controls, was ≤0.2%. Cell viability assay was performed after 72 h of drug treatment while whole cell lysate preparation and cell cycle analysis were done after 24 h and 48 h of drug treatment. For studying NF-κB and AP-1, Uttroside B was incubated for 2 h before extraction.
Radiolabeling of oligonucleotide probes for electrophoretic mobility shift assay:HepG2 Cells were treated with Uttroside B for two hours, scraped and suspended in 150 μL of lysis buffer (10 mM HEPES(pH 7.9), 10 mM KCl, 0.1 mM EDTA, 0.1 mM EGTA, 1 mM DTT, 0.5 mMphenylmethylsulfonyl fluoride, 2 μg/mL leupeptin, 2 μg/mL aprotinin, 0.5 mg/ml benzamidine) for 30 min, after which 4.5 μl of 10% Nonidet P-40 was added. […]

PC-12 = conditions: literature ref 13; read-out: IC50, cytotoxicity against PC-12; cited from earlier work
HeLa cells = conditions: literature ref 12; read-out: IC50, cytotoxicity against HeLa (cervical cancer cells); cited from earlier work
HepG2 cells = experiment: Acridine orange staining for acidic vesicular organelles; assay type: cell-based, human; conditions: HepG2, cytotoxic concentration, 24 h
Description: The presence of acidic vesicles, which are characteristics of autophagosome can be analyzed using this method. Acridine orange stains the nucleus green and the acidic vesicular organellae (AVOs) as red.^32 To detect the presence of AVOs in HepG2 cells, 5×10^3 were seeded in 96 well plates, and treated with Uttroside B and incubated for 24 h. The cells were rinsed with 1× PBS twice. The treated cells were then stained with acridine orange, which was added at a final concentration of 1 μg/mL and incubated for 15 min and immediately photographed using a fluorescent microscope.
FIG. 18 is a representative image showing that Uttroside B induces acidic vacuole formation in HepG2 cells by Acridine orange staining. To further confirm the autophagic induction by Uttroside B in HepG2 cells, the cells were exposed to cytotoxic concentration of Uttroside B for a period of 24 h and stained with Acridine orange dye. AO orange stains nucleus green and acidic vesicular organelle, mainly autophagosome, bright red. It crosses into acidic compartments and becomes protonated. The protonated dye stacks and stacked acridine orange emits in the red range.

[1] = system: autophagy related proteins in HepG2 cells; experiment: Western blot of autophagy related proteins in HepG2 cells; assay type: cell-based, human; conditions: time dependent
Description: Western blot analysis. Approximately 0.5×10^6 cells were grown on 60 mm culture plates and exposed to drugs as indicated for the desired time. The cells were then scraped out, washed in ice cold 1× PBS and pelleted down at 13000 rpm for 2 min. The pelleted cells were suspended in 150 μL of ice-cold whole cell lysis buffer[(20 mMTris of pH 7.4, 250 mM NaCl, 2 mM EDTA, 0.1% Triton, 1 mM DTT (1,4-dithiothreitol), 0.5 mM PMSF, 4 mM sodium orthovanadate, aprotinin (5 mg m/L) and leupeptin (5 mg m/L)] and kept in ice for 30 min, with intermittent vortexing every 5 min. After incubation, the lysate was centrifuged at 13000 rpm for 10 min at 4° C. and the supernatant was collected. The total protein content in the lysate was estimated by Bradford's method, and was then denatured by boiling with 5× loading dye before separating the proteins by SDSpolyacrylamidegel electrophoresis (SDS-PAGE). […]

C[C@H](CC[C@@]1(O)O[C@H]2C[C@H]3[C@@H]4CC[C@H]5C[C@@H](O[C@@H]6O[C@H](CO)[C@H](O[C@@H]7O[C@H](CO)[C@@H](O)[C@H](O[C@@H]8OC[C@@H](O)[C@H](O)[C@H]8O)[C@H]7O[C@@H]7O[C@H](CO)[C@@H](O)[C@H](O)[C@H]7O)[C@H](O)[C@H]6O)CC[C@]5(C)[C@H]4CC[C@]3(C)[C@H]2[C@@H]1C)CO[C@@H]1O[C@H](CO)[C@@H](O)[C@H](O)[C@H]1O [Uttroside B]
AP-1 (downstream target of MAPK signaling) (AP-1 in HepG2 cells): down-regulated | IC50 (PC-12): 1.2 µM | IC50 (HeLa cells): 15.4 µM | acidic vacuole formation (Acridine orange) (HepG2 cells): AO positivity, a preliminary indication of increased autophagosomes was clearly visible | expression of autophagy related proteins, HepG2 [1]: induces up-regulation of all autophagy related proteins in a time dependent manner
